The values below come from patent US5856127A, “Antimicrobial peptides” (The Research Foundation of State University of New York, priority 1996, dated 1999).

One data set relates to Salix lucida pollen. It counts as cell-based. The following applies: pH 6.2. The method, then: Willow pollen was extracted using the protocol described by de Niella and Maynard (1993). Catkins were gently stirred in carbon tetrachloride. The pollen/carbon tetrachloride suspension was filtered (Whatman filter paper) with suction. The pollen was transferred to microfuge tubes (1.5 ml) with a fine-bristle artist's brush and stored at -20° C.
(§1) To rehydrate, small amounts of pollen were placed in open microfuge tubes (1.5 ml) which were placed into a closed glass petri dish with a dampened tissue. Pollen was rehydrated overnight in a dark chamber at 14° C.
(§2) Rehydrated plant pollen was diluted with sucrose-boric acid medium ("SBM") to a concentration of 80 grains/μl (Neubauer hemocytometer). Media for pollen germination (SBM, pH 6.2) was prepared with deionized distilled water, sucrose (150 g/L), and boric acid (150 mg/L). Dilutions of all peptides tested against rehydrated pollen grains were aseptically prepared with sterile SBM. Aliquots (50 μl) of peptide solutions were aseptically placed in ELISA microtitre plates as before. Approximately 400 pollen grains (5 μl) were added to the 50 μl volume of peptide solution in the well to give the final peptide concentrations of 0, 1.25, 2.5, 5, 10, 15, 20, 25, 50, 100, 150, 200, and 250 μM. Microtitre plates were incubated in the dark at room temperature for 24 hr. […] All tests were repeated 4 or more times. Controls without peptides were included with all tests. The highest concentration tested was 250 μM.

Data set [1] concerns Castanea mollissima pollen. It counts as cell-based. The conditions noted are these: pH 6.2. The method, then: (§3) Pollen collections for Chinese chestnut (Castanea mollissima), tomato (Lycopersicon esculentum), and willow (Salix lucida) clone 507 were made in central New York. Chestnut catkins and tomato flowers were placed into paper bags in an ice chest. Within 2 hr after collection, catkins were cut into 1.0 cm segments and tomato anthers were placed into sterile 15 ml Falcon tubes. The tubes were "capped" with parafilm punctured with 12-15 holes and lyophilized for 24 hr. Lyophilized samples were stored at -20°C. until removed for rehydration.
as §1, §2

The next data set relates to Septoria musiva. The data set is described as follows: MIC against fungal conidia (Septoria musiva). It counts as cell-based. The following applies: strain 92-49C, PDAmb pH 5.2, scored at 6 days, total prevention of germination. The method, then: (§4) Dilutions of peptides, prepared in sterile deionized water, were placed (20 μl aliquots) in Corning disposable sterile polystyrene ELISA plates (96 well, high binding) which had been pretreated with bovine serum albumin by rinsing each well with 200 μl of a 1.0 mg/ml solution.
(§5) Media (PDAmb, pH 5.2) was prepared with deionized water, Difco potato dextrose broth (12 g/L), Sigma D,L-methionine (0.05 g/L), Sigma biotin (2 mg/L), and FisherBiotech low melting point agarose (20 g/L). Sterilized media was added to the wells to make a final volume of 100 μl and allowed to harden for 3 hr prior to inoculation with 10 μl of conidial suspension. Peptide concentrations tested were 0, 1.25, 2.5, 5, 10, 15, 20, 25, 50, 100, 150, 200, and 250 μM.
(§6) Fungal conidial suspensions were aseptically prepared from agar plate cultures of C. parasitica and S. musiva or liquid cultures for F. oxysporum f.sp. lycopersici. Conidia were suspended from agar plates with 10 ml sterile 1% Tween 20. All culture suspensions were filtered through four layers of sterile cheesecloth, collected in sterile 15 ml Falcon tubes, and centrifuged for 3 min at 1900×g. The pellets were then suspended in 10 ml sterile deionized water and centrifuged for 3 min at 1900×g. The "washed" pellets were suspended in 5 ml sterile deionized water. The conidial concentration was determined using a hemocytometer (Fisher ultra plane, Neubauer ruling) and then diluted to 1.0×10^4 conidia/ml.
(§7) Approximately 100 conidia (10 μl) were transferred to each microtitre plate well. Microtitre plates were incubated in ambient light at room temperature in a moist chamber (plastic box containing wet paper towels and covered with clear plastic wrap). Tests with S. musiva used continuous light. Plates were scored for growth at 6 days and photographed. All tests were repeated 4 or more times. Controls without peptides were included with all tests.

The subject of another data set is Fusarium oxysporum. The data set is described as follows: MIC against fungal conidia (Fusarium oxysporum). The following applies: f. sp. lycopersici strain 73, PDAmb pH 5.2, scored at 6 days. The data set is classed as cell-based. The method, then:
as §4, §5, §6, §7

For another data set, the system named is Cryphonectria parasitica. The data set is described as follows: MIC against fungal conidia (Cryphonectria parasitica). The following applies: strain EP42, PDAmb pH 5.2, scored at 6 days. The data set is classed as cell-based. The method, then: as §4, §5, §6, §7
Another data set concerns Candida albicans. The following applies: against the yeast Candida albicans; cited from earlier work.
Data set [2] concerns Lycopersicon esculentum pollen. It counts as cell-based. The conditions noted are these: pH 6.2. The method, then: as §3, §1, §2
For the next data set, the system named is Malus domestica pollen. The data set is classed as cell-based. The following applies: pH 6.2. The method, then: Apple (Malus domestica) cultivar "Empire" pollen was supplied by Susan Brown, Department of Horticultural Sciences, Cornell University, New York State Agricultural Experiment Station, Geneva, N.Y.
as §1, §2

The subject of data set [3] is microorganisms and animal red blood cells. The following applies: cited from earlier work.
Data set [4] has as its system Agrobacterium tumefaciens. The data set is described as follows: MIC against bacteria (Agrobacterium tumefaciens). It counts as cell-based. The conditions noted are these: wild-type strain Bo542, no visible lawn or colonies after 3 days. The method, then: as §4
(§8) Bacterial suspensions of A. tumefaciens, E. amylovora, and P. syringae were obtained from liquid cultures grown in Luria Broth (Atlas and Parks 1993). Cultures were grown at 25°C. on a rotary shaker (110 rpm) for 14 hr. Bacterial cell suspensions with an optical density between 0.7 and 0.85 at 600 nanometers (OD600) were used for assay inoculations. Dilutions of peptides were placed in the 96-well ELISA plates as described above. The final peptide concentrations tested were 0, 0.625, 1.25, 2.5, 5, 10, 15, 20, 25, 50, 100, and 250 μM. All tests were repeated 2 or more times. Controls without peptides were included with all tests. The MIC for bacterial cells was the lowest peptide concentration associated with no visible bacterial lawn or isolated colonies on the medium after 3 days in all the repeated tests.

Another data set has as its system Erwinia amylovora. The data set is described as follows: MIC against bacteria (Erwinia amylovora). The conditions noted are these: Collection 88-100, no visible lawn or colonies after 3 days. It counts as cell-based. The method, then:
as §4, §8

A further data set has as its system Pseudomonas syringae. The data set is described as follows: MIC against bacteria (Pseudomonas syringae). The data set is classed as cell-based. The conditions noted are these: Collection PSS34, no visible lawn or colonies after 3 days. The method, then:
as §4, §8

The next data set relates to bacteria. The data set is described as follows: Activity against bacteria relative to magainin (applicants' observation). It counts as cell-based. The following applies: three amino acid substitution versus magainin.
Data set [5] relates to selected filamentous fungi. The data set is described as follows: Activity against filamentous fungi relative to magainin (applicants' observation). It counts as cell-based. The following applies: three amino acid substitution versus magainin.
The subject of another data set is Pseudomonas aeruginosa. The following applies: against Pseudomonas aeruginosa; cited from earlier work.
For data set [6] the following is noted: combined with either magainin I or magainin II in a 1:1 molar ratio; cited from earlier work.

Where a SMILES comes first, the peptide text is derived from it.

`CSCC[C@H](N)C(=O)N[C@@H](C)C(=O)N[C@@H](C)C(=O)N[C@@H](CCCNC(=N)N)C(=O)N[C@@H](C)C(=O)N[C@@H](C)C(=O)NCC(=O)N[C@@H](CC(C)C)C(=O)N[C@@H](C)C(=O)N[C@@H](C)C(=O)N[C@@H](CCCNC(=N)N)C(=O)N[C@@H](CC(C)C)C(=O)N[C@@H](C)C(=O)N[C@@H](C)C(=O)N[C@@H](CC(C)C)C(=O)N[C@@H](C)C(=O)N[C@@H](CC(C)C)C(=O)N[C@@H](CCCNC(=N)N)C(=O)N[C@@H](C)C(=O)N[C@@H](CC(C)C)C(=O)O` [ESF6] (H-MAARAAGLAARLAALALRAL-OH): in the data set on Salix lucida pollen, the “MIC, Salix lucida” value was greater than 250 µM. For the same compound, the “MIC, Castanea mollissima” value in [1] was greater than 250 µM.

Take `CSCC[C@H](N)C(=O)N[C@@H](C)C(=O)N[C@@H](CO)C(=O)N[C@@H](CCCNC(=N)N)C(=O)N[C@@H](C)C(=O)N[C@@H](C)C(=O)NCC(=O)N[C@@H](CC(C)C)C(=O)N[C@@H](C)C(=O)N[C@@H](C)C(=O)N[C@@H](CCCNC(=N)N)C(=O)N[C@@H](CC(C)C)C(=O)N[C@@H](C)C(=O)N[C@@H](CCCNC(=N)N)C(=O)N[C@@H](CC(C)C)C(=O)N[C@@H](C)C(=O)N[C@@H](CC(C)C)C(=O)N[C@@H](CCCNC(=N)N)C(=O)N[C@@H](C)C(=O)N[C@@H](CC(C)C)C(=O)O` [ESF1] (H-MASRAAGLAARLARLALRAL-OH): the “MIC, Salix lucida” value in the data set with Salix lucida pollen was greater than 250 µM. Further, the “MIC, Castanea mollissima” value in [1] was greater than 250 µM.

As for Magainin I, the “MIC, Septoria musiva” value against Septoria musiva came to 5 µM. In addition, the “MIC, Fusarium oxysporum” value in the data set on Fusarium oxysporum was 15 µM. Besides, the “MIC, Cryphonectria parasitica” value against Cryphonectria parasitica was found to be 10 µM.

As for `CSCC[C@H](N)C(=O)N[C@@H](C)C(=O)N[C@@H](CO)C(=O)N[C@@H](CCCNC(=N)N)C(=O)N[C@@H](C)C(=O)N[C@@H](C)C(=O)NCC(=O)N[C@@H](CC(C)C)C(=O)N[C@@H](C)C(=O)N[C@@H](CCCNC(=N)N)C(=O)N[C@@H](CCCNC(=N)N)C(=O)N[C@@H](CC(C)C)C(=O)N[C@@H](C)C(=O)N[C@@H](CCCNC(=N)N)C(=O)N[C@@H](CC(C)C)C(=O)N[C@@H](C)C(=O)N[C@@H](CCCNC(=N)N)C(=O)N[C@@H](CCCNC(=N)N)C(=O)N[C@@H](C)C(=O)N[C@@H](CC(C)C)C(=O)O` [ESF5] (H-MASRAAGLARRLARLARRAL-OH), the “MIC, Salix lucida” value in the data set on Salix lucida pollen was greater than 250 µM. In data set [1], the “MIC, Castanea mollissima” value is greater than 250 µM.

With XPF, the “times more effective than PGLa” value with Candida albicans was 2-2.5 times.

On to `CSCC[C@H](N)C(=O)N[C@@H](C)C(=O)N[C@@H](CO)C(=O)N[C@@H](CCCNC(=N)N)C(=O)N[C@@H](C)C(=O)N[C@@H](C)C(=O)NCC(=O)N[C@@H](CC(C)C)C(=O)N[C@@H](C)C(=O)N[C@@H](C)C(=O)N[C@@H](CCCNC(=N)N)C(=O)N[C@@H](CC(C)C)C(=O)N[C@@H](C)C(=O)N[C@@H](CCCNC(=N)N)C(=O)N[C@@H](CC(C)C)C(=O)N[C@@H](C)C(=O)N[C@@H](CC(C)C)C(=O)N[C@@H](CCCNC(=N)N)C(=O)O` [ESF12] (H-MASRAAGLAARLARLALR-OH), for which the “MIC, Salix lucida” value in the data set on Salix lucida pollen is greater than 250 µM. In addition, the “MIC, Castanea mollissima” value in data set [1] was greater than 250 µM. For the same compound, in data set [2], the “MIC, Lycopersicon esculentum” value is greater than 250 µM. In addition, in the data set with Malus domestica pollen, the “MIC, Malus domestica” value was greater than 250 µM.

On to `CC[C@H](C)[C@H](NC(=O)CN)C(=O)NCC(=O)N[C@@H](C)C(=O)N[C@H](C(=O)N[C@@H](CC(C)C)C(=O)N[C@@H](CCCCN)C(=O)N[C@H](C(=O)N[C@@H](CC(C)C)C(=O)N[C@H](C(=O)N[C@H](C(=O)NCC(=O)N[C@@H](CC(C)C)C(=O)N1CCC[C@H]1C(=O)N[C@@H](C)C(=O)N[C@@H](CC(C)C)C(=O)N[C@H](C(=O)N[C@@H](CO)C(=O)N[C@@H](Cc1c[nH]c2ccccc12)C(=O)N[C@H](C(=O)N[C@@H](CCCCN)C(=O)N[C@@H](CCCNC(=N)N)C(=O)N[C@@H](CCCCN)C(=O)N[C@@H](CCCNC(=N)N)C(=O)N[C@@H](CCC(N)=O)C(=O)N[C@@H](CCC(N)=O)C(N)=O)[C@@H](C)CC)[C@@H](C)CC)[C@@H](C)O)[C@@H](C)O)C(C)C)C(C)C` [melittin], for which the lytic activity entry in data set [3] is given as “very lytic”.

For cecropin B, in the data set on Septoria musiva, the “MIC, Septoria musiva” value amounted to 5 µM. Moreover, in the data set with Fusarium oxysporum, the “MIC, Fusarium oxysporum” value came to 20 µM. Also, in the data set with Cryphonectria parasitica, the “MIC, Cryphonectria parasitica” value was 15 µM.

On to “(Ala^8,13,15)magainin II [Ala^8,13,15 Magainin II]”, for which the “MIC, Septoria musiva” value against Septoria musiva amounted to 10 µM. Besides, the “MIC, Fusarium oxysporum” value in the data set with Fusarium oxysporum is 15 µM. Moreover, in the data set on Cryphonectria parasitica, the “MIC, Cryphonectria parasitica” value worked out at 30 µM. For the same compound, the “MIC, Agrobacterium tumefaciens” value in [4] came out at 100 µM. The “MIC, Erwinia amylovora” value in the data set on Erwinia amylovora is 250 µM. Besides, the “MIC, Pseudomonas syringae” value in the data set with Pseudomonas syringae worked out at 250 µM. The “change of magainin activity against bacteria” value with bacteria was “increased magainin activity against bacteria”. Further, in [5], the “change of magainin activity against selected filamentous fungi” value is on record as “opposite effect”.

In the case of PGLa, the “times more active than XPF” value with Pseudomonas aeruginosa is listed as 4-5 times. The “increase of antimicrobial activity” value in data set [6] was 20-50 fold.
